# Laboratory results as given in patent publication US20120115907A1, “NOVEL COMPOUNDS AS INHIBITORS OF RENIN” (CADILA HEALTHCARE LIMITED, priority 2009, published 2012).
# Where a name gives a salt, the structure may show the parent alone.
# Biological target: T1, human recombinant renin (Homo sapiens, UniProt P00797)
# T1 construct: purchased Cayman 10006270
# T1 sequence (P00797 67-406): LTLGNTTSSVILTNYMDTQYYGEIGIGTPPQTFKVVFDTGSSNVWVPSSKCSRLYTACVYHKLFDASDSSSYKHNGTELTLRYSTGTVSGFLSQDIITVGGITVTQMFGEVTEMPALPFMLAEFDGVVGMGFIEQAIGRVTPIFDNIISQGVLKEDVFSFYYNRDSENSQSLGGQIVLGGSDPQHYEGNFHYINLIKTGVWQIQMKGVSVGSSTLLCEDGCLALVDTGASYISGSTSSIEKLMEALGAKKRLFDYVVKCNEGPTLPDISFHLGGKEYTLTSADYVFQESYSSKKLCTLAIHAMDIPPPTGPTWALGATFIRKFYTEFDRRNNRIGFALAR
# Assay: Inhibition of human recombinant renin (modified Cayman renin inhibitor screening assay, fluorescence)
# Type: biochemical
# Conditions: for inhibition at 0.01 µM / Renin inhibition (percent inhibition of renin activity) at 0.01 μM: 0.01 μM compound; for inhibition at 0.01 µM / inhibition at 0.1 µM / Renin inhibition (percent inhibition of renin activity) at 0.01 μM / Renin inhibition (percent inhibition of renin activity) at 0.1 μM: 37° C., 30 mins, human recombinant renin; for inhibition at 0.01 µM: read-out: Renin inhibition (percent inhibition of renin activity) at 0.01 μM; for inhibition at 0.1 µM / Renin inhibition (percent inhibition of renin activity) at 0.1 μM: 0.1 μM compound; for inhibition at 0.1 µM: read-out: Renin inhibition (percent inhibition of renin activity) at 0.1 μM
# Procedure: In-vitro protocol for the Inhibition of human recombinant renin by the compound of invention • Procedure: The enzymatic in vitro assay was performed in 96 well polypropylene plate (Nunc), using a modified Renin inhibitor screening assay protocol (Cayman, cat no: 10006270). The reaction system comprised assay buffer containing 50 mM Tris-HCL, pH=8.0 & 100 mM sodium chloride, human recombinant rennin (1:20 diluted with fixed activity), synthetic renin substrates (Cayman, cat no: 10006906) (14.4 μM) and different concentrations of renin inhibitors in DMSO in a total reaction system of 100 μl. The entire reaction mixture were incubated at 37° C. for 30 mins and the fluorescence was read at excitation wavelengths of 320-360 nm and emission wavelengths of 490-520 nm. Test compounds efficacy was determined by the percent inhibition of renin activity using Aliskiren (Tekturna) as a reference standard.
# Following table represents measured IC50 values of the selected compounds for its inhibition of human recombinant renin.
SMILES,inhibition at 0.01 µM [%],inhibition at 0.1 µM [%],also measured
"COc1cccc(CN(C(=O)C2CNCC[C@@H]2NC(=O)c2ccc(OCCOc3c(Cl)cc(C)cc3Cl)cc2)C2CC2)c1OC.Cl (stereo partly drawn) [Example 15, (4S)—N-cyclopropyl-4-(4-(2-(2,6-dichloro-4-methylphenoxy)ethoxy)benzamido)-N-(2,3-dimethoxybenzyl)piperidine-3-carboxamide hydrochloride]",–,–,"Renin inhibition (percent inhibition of renin activity) at 0.01 μM (hydrochloride, 0.01 µM): 13%; Renin inhibition (percent inhibition of renin activity) at 0.1 μM (hydrochloride, 0.1 µM): 12%"
"O=C(NC1CCNCC1C(=O)N(Cc1ccc(Cl)cc1Cl)C1CC1)c1ccc(OCCOc2c(Cl)cccc2Cl)cc1 (stereo not shown) [Example 6, N-Cyclopropyl-N-(2,4-dichlorobenzyl)-4-(4-(2-(2,6-dichlorophenoxy)ethoxy)benzamido) piperidine-3-carboxamide]",–,–,Renin inhibition (percent inhibition of renin activity) at 0.01 μM: * (Inactive at tested concentration); Renin inhibition (percent inhibition of renin activity) at 0.1 μM: 40%
"COc1ccccc1COCCCOc1ccc(C(=O)N[C@H]2CCNCC2C(=O)N(Cc2ccccc2OC)C2CC2)cc1 (stereo partly drawn) [Example 33, (4S)—N-Cyclopropyl-N-(2-methoxybenzyl)-4-(4-(3-((2-methoxybenzyl)oxy)propoxy)benzamido)piperidine-3-carboxamide hydrochloride]",< 10,17,–
"Cc1cc(C)cc(CN(C(=O)C2CNCCC2NC(=O)c2ccc(OCCOc3c(Cl)cccc3Cl)cc2)C2CC2)c1 (stereo not shown) [Example 4, N-Cyclopropyl-4-(4-(2-(2,6-dichlorophenoxy)ethoxy)benzamido)-N-(3,5-dimethylbenzyl)piperidine-3-carboxamide]",< 10,47,–
COc1ccccc1COCCCOc1ccc(C(=O)N[C@H]2CCNCC2C(=O)N(Cc2cccc(C)c2C)C2CC2)cc1.Cl (stereo partly shown) [Example 27],–,–,"Renin inhibition (percent inhibition of renin activity) at 0.01 μM (hydrochloride): * (Inactive at tested concentration); Renin inhibition (percent inhibition of renin activity) at 0.1 μM (hydrochloride, 0.1 µM): 38%"
"Cc1cc(Cl)c(OCCOc2ccc(C(=O)N[C@H]3CCNCC3C(=O)N(Cc3ccccc3Cl)C3CC3)cc2)c(Cl)c1 (stereo partly drawn) [Example 30, (4S)—N-(2-Chlorobenzyl)-N-cyclopropyl-4-(4-(2-(2,6-dichloro-4-methylphenoxy)ethoxy)benzamido)piperidine-3-carboxamide hydrochloride]",< 10,87,–
"Cc1cc(Cl)c(OCCOc2ccc(C(=O)N[C@@H]3CCNCC3C(=O)N(Cc3ccc(C)c(C)c3)C3CC3)cc2)c(Cl)c1 (stereo partly drawn) [Example 22, (4R)—N-Cyclopropyl-4-(4-(2-(2,6-dichloro-4-methylphenoxy)ethoxy)benzamido)-N-(3,4-dimethylbenzyl)piperidine-3-carboxamide hydrochloride]",< 10,40,–
"Cc1cc(Cl)c(OCCOc2ccc(C(=O)N[C@H]3CCNCC3C(=O)N(Cc3cccc(C)c3C)C3CC3)cc2)c(Cl)c1 (stereo partly drawn) [Example 20, (4S)—N-Cyclopropyl-4-(4-(2-(2,6-dichloro-4-methylphenoxy)ethoxy)benzamido)-N-(2,3-dimethylbenzyl)piperidine-3-carboxamide hydrochloride]",48,91,IC50: 13 nM
Cc1cc(Cl)c(OCCOc2ccc(C(=O)N[C@H]3CCNCC3C(=O)N(Cc3ccc(C)c(C)c3)C3CC3)cc2)c(Cl)c1.Cl (stereo partly shown) [Example 18],–,–,Renin inhibition (percent inhibition of renin activity) at 0.01 μM: 20%; Renin inhibition (percent inhibition of renin activity) at 0.1 μM: 56%
"Cc1cc(Cl)c(OCCOc2ccc(C(=O)NC3CCNCC3C(=O)N(Cc3ccc4ccccc4c3)C3CC3)cc2)c(Cl)c1 (stereo not shown) [Example 12, N-Cyclopropyl-4-(4-(2-(2,6-dichloro-4-methylphenoxy)ethoxy)benzamido)-N-(naphthalen-2-ylmethyl)piperidine-3-carboxamide]",43,89,IC50: 64 nM
"COc1ccccc1COCCCOc1ccc(C(=O)N[C@H]2CCNCC2C(=O)N(Cc2cccc(C)c2C)C2CC2)cc1 (stereo partly drawn) [Example 28, (4S)—N-Cyclopropyl-N-(2,3-dimethylbenzyl)-4-(4-(3-((2-methoxybenzyl)oxy)propoxy)benzamido)piperidine-3-carboxamide hydrochloride]",60,93,–

# The next lines start with results.
inhibition at 0.01 µM [%],inhibition at 0.1 µM [%],SMILES,also measured
42,81,"Cc1cc(Cl)c(OCCOc2ccc(C(=O)NC3CCNCC3C(=O)N(Cc3ccc(Cl)cc3Cl)C3CC3)cc2)c(Cl)c1 (mixture of isomers) [Example 5, N-Cyclopropyl-4-(4-(2-(2,6-dichloro-4-methylphenoxy)ethoxy)benzamido)-N-(2,4-dichlorobenzyl)piperidine-3-carboxamide]",IC50: 39 nM
< 10,41,"COc1ccc(CN(C(=O)C2CNCCC2NC(=O)c2ccc(OCCOc3c(Cl)cc(C)cc3Cl)cc2)C2CC2)cc1OC (stereo not shown) [Example 8, N-Cyclopropyl-4-(4-(2-(2,6-dichloro-4-methylphenoxy)ethoxy)benzamido)-N-(3,4-dimethoxybenzyl)piperidine-3-carboxamide]",–
19,–,"COc1cccc(CN(C(=O)C2CNCC[C@@H]2NC(=O)c2ccc(OCCOc3c(Cl)cc(C)cc3Cl)cc2)C2CC2)c1OC.Cl (stereo partly drawn) [Example 14, (4S)—N-cyclopropyl-4-(4-(2-(2,6-dichloro-4-methylphenoxy)ethoxy)benzamido)-N-(2,3-dimethoxybenzyl)piperidine-3-carboxamide hydrochloride]","Renin inhibition (percent inhibition of renin activity) at 0.1 μM (hydrochloride, 0.1 µM): 66%"
24,81,"COc1cccc(CN(C(=O)C2CNCC[C@@H]2NC(=O)c2ccc(OCCOc3c(Cl)cc(C)cc3Cl)cc2)C2CC2)c1C (stereo partly drawn) [Example 37, (4S)—N-Cyclopropyl-4-(4-(2-(2,6-dichloro-4-methylphenoxy)ethoxy)benzamido)-N-(3-methoxy-2-methylbenzyl)piperidine-3-carboxamide hydrochloride]",IC50: 17 nM
10,83,"Cc1cc(Cl)c(OCCOc2ccc(C(=O)N[C@@H]3CCNCC3C(=O)N(Cc3cccc(C)c3C)C3CC3)cc2)c(Cl)c1 (stereo partly drawn) [Example 24, (4R)—N-Cyclopropyl-4-(4-(2-(2,6-dichloro-4-methylphenoxy)ethoxy)benzamido)-N-(2,3-dimethylbenzyl)piperidine-3-carboxamide hydrochloride]",–
60,95,"Cc1cc(Cl)c(OCCOc2ccc(C(=O)N[C@H]3CCNCC3C(=O)N(Cc3cccc(Cl)c3Cl)C3CC3)cc2)c(Cl)c1 (stereo partly drawn) [Example 35, (4S)—N-Cyclopropyl-4-(4-(2-(2,6-dichloro-4-methylphenoxy)ethoxy)benzamido)-N-(2,3-dichlorobenzyl)piperidine-3-carboxamide hydrochloride]",–
< 10,43,"COCCCOc1cccc(CN(C(=O)C2CNCCC2NC(=O)c2ccc(OCCOc3c(Cl)cccc3Cl)cc2)C2CC2)c1 (stereo not shown) [Example 3, N-Cyclopropyl-4-(4-(2-(2,6-dichlorophenoxy)ethoxy)benzamido)-N-(3-(3-methoxypropoxy)benzyl)piperidine-3-carboxamide]",–
11,52,"COc1ccccc1COCCOc1ccc(C(=O)N[C@H]2CCNCC2C(=O)N(Cc2cccc(C)c2C)C2CC2)cc1 (stereo partly drawn) [Example 16, (4S)—N-Cyclopropyl-N-(2,3-dimethylbenzyl)-4-(4-(2-((2-methoxybenzyl)oxy)ethoxy)benzamido)piperidine-3-carboxamide]",–
< 10,44,"Cc1cc(C)cc(CN(C(=O)C2CNCCC2NC(=O)c2ccc(OCCOc3c(Cl)cc(C)cc3Cl)cc2)C2CC2)c1 (stereo not shown) [Example 10, N-Cyclopropyl-4-(4-(2-(2,6-dichloro-4-methylphenoxy)ethoxy)benzamido)-N-(3,5-dimethylbenzyl)piperidine-3-carboxamide]",–
11,65,"Cc1cc(Cl)c(OCCOc2ccc(C(=O)N[C@H]3CCNCC3C(=O)N(Cc3ccccc3F)C3CC3)cc2)c(Cl)c1 (stereo partly drawn) [Example 29, (4S)—N-Cyclopropyl-4-(4-(2-(2,6-dichloro-4-methylphenoxy)ethoxy)benzamido)-N-(2-fluorobenzyl)piperidine-3-carboxamide hydrochloride]",–
